{
  "source": "ChEMBL document CHEMBL4196204",
  "about": "“Sulfonic Acid-Containing Flavonoids from the Roots of Phyllanthus acidus” (J Nat Prod, 2018)",
  "key": {"HepG2": {"tested_on": "HepG2", "assay": "Antiproliferative activity against human HepG2 cells by MTT assay", "assay_type": "functional, cell-based"}, "MCF7": {"tested_on": "MCF7", "assay": "Antiproliferative activity against human MCF7 cells by MTT assay", "assay_type": "functional, cell-based"}},
  "note": "Active and inactive are the calls of the source. No cut-off for these calls is given here.",
  "data": [
    {"molecule": "COc1c(O)c2c(c(S(=O)(=O)O)c1O)OC(c1ccc(O)cc1)CC2=O", "note": "(racemic)", "values": [
      {"measurement": "Activity", "setting": "HepG2", "result": "inactive"},
      {"measurement": "Activity", "setting": "MCF7", "result": "inactive"}
    ]}
  ]
}
